Active and inactive are the calls of the source. The rule behind the calls is not given here.
Species on record: Rattus norvegicus
Test: Inhibition of Hsp90 in rat 50B11 cells assessed as increase in Hsp70 level at 0.5 to 1000 nM after 24 hrs by Western blot method
Assay type: cell-based

| SMILES | inhibition |
| --- | --- |
| CC(=O)NCCc1ccc(OC2CCC(OCc3ccccc3)CC2)cc1-c1cccc(F)c1 (mixture of isomers) | Active |
| CO[C@@H]1[C@@H](O)[C@@H](O)[C@H](Oc2ccc(CCNC(C)=O)c(-c3cccc(F)c3)c2)OC1(C)C | Active |

Species on record: Rattus norvegicus
Test: Inhibition of Hsp90 in rat 50B11 cells expressing human HSPA1A gene assessed as increase in Hsp70 level at 10 to 1000 nM after 16 hrs by luciferase reporter assay
Assay type: cell-based

| SMILES | inhibition |
| --- | --- |
| CC(=O)NCCc1ccc(O[C@H]2CC[C@@H](OCc3ccccc3)C2)cc1-c1cccc(F)c1 | inactive |
| CC(=O)NCCc1ccc(OC2C[C@H](O)CO2)cc1-c1cccc(F)c1 (mixture of isomers) | inactive |
| CC(=O)NCCc1ccc(OC2C=CCCC2)cc1-c1cccc(F)c1 (racemic) | inactive |
| CC(=O)NCCc1ccc(OC2CCC(OCc3ccccc3)CC2)cc1-c1cccc(F)c1 (mixture of isomers) | Active |
| CC(=O)NCCc1ccc(OC2OCCC2O)cc1-c1cccc(F)c1 (mixture of isomers) | inactive |
| CC(=O)NCCc1ccc(O[C@@H]2CC[C@@H](OCc3ccccc3)C2)cc1-c1cccc(F)c1 | inactive |
| CC(=O)NCCc1ccc(OC2OC[C@@H](O)[C@H]2O)cc1-c1cccc(F)c1 (mixture of isomers) | inactive |
| CC(=O)NCCc1ccc(OC2CCCC(OCc3ccccc3)C2)cc1-c1cccc(F)c1 (mixture of isomers) | Active |
| CC(=O)NCCc1ccc(OC2CCCC(O)C2)cc1-c1cccc(F)c1 (mixture of isomers) | Active |
| CC(=O)NCCc1ccc(OC2C=CCC(C)(C)C2)cc1-c1cccc(F)c1 (racemic) | inactive |
| CC(=O)NCCc1ccc(OC2CCC(O)CC2)cc1-c1cccc(F)c1 (mixture of isomers) | Active |

From ChEMBL document CHEMBL3774380, “Development of Noviomimetics as C-Terminal Hsp90 Inhibitors” (ACS Med Chem Lett, 2016)
